{"source": "patent US20250206778A1", "about": "“PEPTIDE HAVING ANTIDIABETIC ACTIVITY, PEPTIDE COMPLEX, AND USE THEREOF” (CAREGEN CO., LTD., priority 2022, published 2025)", "assay_type_in_all_cases": "cell-based", "key": {"3T3-L1 adipocytes": {"system": "3T3-L1 adipocytes", "test": "Glycerol release assay (lipolysis) in 3T3-L1 adipocytes", "details": "2, 20 μg/ml, 48 h, FIG. 14", "method": "The release amount of glycerol, a lipolysis product, was analyzed to determine whether the peptide of SEQ ID NO: 2 prepared in Preparation Example 1 promotes lipolysis in adipocytes.\nWhen 3T3-L1 preadipocytes reached 80% confluence, they were seeded in a 6-well plate at 5×10^5 cells/well and used for the experiment. Two days after reaching confluence, the culture medium was replaced with a differentiation induction medium [DMEM medium containing 10% FBS, 1 μg/ml insulin, 0.5 mM isobutyl methyl xanthine (IBMX) (Sigma, USA), and 1 μM dexamethasone (Sigma, USA)], and differentiation into adipocytes was induced. Two days after induction, preadipocytes were cultured for two days in a medium containing 10% FBS and 10 μg/mL insulin, and then the medium was replaced with a medium containing 10% FBS every two days until preadipocytes differentiated into adipocytes. When differentiation was completed, the medium was replaced with a serum-free medium, and cells were cultured for four hours to induce starvation. Cells were divided into an untreated group (negative control), the peptide of SEQ ID NO: 2 of Preparation Example 1 (2, 20 μg/ml)-treatment group, and the TNF-α (20 nM)-treatment group (positive control), and then treated with the substances at predetermined concentrations and cultured for 48 hours. Then, the supernatants were obtained. […]"}, "phospho-AMPK": {"system": "phospho-AMPK", "test": "Western blot of insulin signals in 3T3-L1 adipocytes (peptide of SEQ ID NO: 2)", "details": "2, 20 μg/ml, FIGS. 15a, 15b", "method": "(§1) When 3T3-L1 preadipocytes reached 80% confluence, they were seeded in a 6-well plate at 5×10^5 cells/well and used for the experiment. Two days after reaching confluence, the culture medium was replaced with a differentiation induction medium [DMEM medium containing 10% FBS, 1 μg/ml insulin, 0.5 mM isobutyl methyl xanthine (IBMX) (Sigma, USA), and 1 μM dexamethasone (Sigma, USA)], and differentiation into adipocytes was induced. Two days after induction, preadipocytes were cultured for two days in a medium containing 10% FBS and 10 μg/mL insulin, and then the medium was replaced with a medium containing 10% FBS every two days until preadipocytes differentiated into adipocytes. When differentiation was completed, the medium was replaced with a serum-free medium, and cells were cultured for four hours to induce starvation. To the cells, each of rhTNF-α (2 nM), insulin (1 μg/ml), and the peptide of SEQ ID NO: 2 of Preparation Example 1 (2, 20 μg/ml) was added and the cells were cultured for one hour. The cells were cultured for 30 minutes, the cells of each treatment group were lysed by adding a lysis buffer, and then centrifuged at 4° C. and 12,000 rpm for 30 minutes. The obtained proteins were quantified using a BCA kit. Proteins were subjected to sodium dodecyl sulfate-polyacrylamide gel electrophoresis (SDS-PAGE) and electrotransferred to a membrane. The protein-attached membrane was blocked with 5% skim milk treatment, and then the primary antibody was reacted overnight at 4° C. The membrane was washed with PBS-T, the secondary antibody was reacted at room temperature for one hour, the membrane was washed again with PBS-T, and then visualization was carried out by using Gel Doc (Bio-Rad, Hercules, CA, USA) with a western detection reagent (Elpis Biotech, Daejeon, Korea). The antibodies used in the experiment are as follows: anti-phospho-IRS (Ser302) antibody (Cell signaling technology (CST), USA), anti-phospho-IRS (Tyr632) antibody (Cell signaling technology (CST), USA), anti-phospho-AKT antibody (Cell signaling technology (CST), USA), anti-phospho-AMPK antibody (Cell signaling technology (CST), USA), and anti-α-tubulin antibody (Santa Cruz Biotechnology, USA). […] In addition, it was confirmed that when the peptide of the present invention was treated, the phosphorylation of AMPK, an insulin sensitivity-increasing signaling protein, increased. Meanwhile, it was confirmed that phosphorylation of Ser302 of an insulin receptor substrate (IRS) decreased under an insulin resistance-inducing environment by the treatment of the present peptide, and thus insulin resistance was inhibited."}, "phospho-IRS (Tyr632)": {"system": "phospho-IRS (Tyr632)", "test": "Western blot of insulin signals in 3T3-L1 adipocytes (peptide of SEQ ID NO: 2)", "details": "2, 20 μg/ml, FIGS. 15a, 15b", "method": "as §1"}, "phospho-AKT": {"system": "phospho-AKT", "test": "Western blot of insulin signals in 3T3-L1 adipocytes (peptide of SEQ ID NO: 2)", "details": "2, 20 μg/ml, FIGS. 15a, 15b", "method": "as §1"}, "phospho-IRS (Ser302)": {"system": "phospho-IRS (Ser302)", "test": "Western blot of insulin signals in 3T3-L1 adipocytes (peptide of SEQ ID NO: 2)", "details": "rhTNF-α 2 nM, 2, 20 μg/ml, FIGS. 15a, 15b", "method": "as §1"}, "[1]": {"system": "adipose triglyceride lipase (ATGL)", "test": "Western blot of lipolytic enzyme proteins in 3T3-L1 adipocytes", "details": "2, 20 μg/ml, 1 h, FIGS. 13a, 13b", "method": "(§2) Whether the peptide of SEQ ID NO: 2 prepared in Preparation Example 1 promotes the expressions of lipolytic enzyme proteins in adipocytes was tested through protein expression analysis (western blot analysis).\n(§3) When 3T3-L1 preadipocytes reached 80% confluence, they were seeded in a 6-well plate at 5×10^5 cells/well and used for the experiment. Two days after reaching confluence, the culture medium was replaced with a differentiation induction medium [DMEM medium containing 10% FBS, 1 μg/ml insulin, 0.5 mM isobutyl methyl xanthine (IBMX) (Sigma, USA), and 1 μM dexamethasone (Sigma, USA)], and differentiation into adipocytes was induced. Two days after induction, preadipocytes were cultured for two days in a medium containing 10% FBS and 10 μg/mL insulin, and then the medium was replaced with a medium containing 10% FBS every two days until preadipocytes differentiated into adipocytes. When differentiation was completed, the medium was replaced with a serum-free medium, and cells were cultured for four hours to induce starvation. Cells were divided into an untreated group (negative control), the peptide of Preparation Example 1 (2, 20 μg/ml)-treatment group, and the TNFα (20 nM)-treatment group (positive control), and then treated with the substances at predetermined concentrations and cultured for one hour. Then, the cells in each treatment group were lysed by adding a lysis buffer. After lysis, proteins obtained by centrifugation at 4° C. and 12,000 rpm for 30 minutes were quantified using a BCA kit. Proteins were subjected to sodium dodecyl sulfate-polyacrylamide gel electrophoresis (SDS-PAGE) and electrotransferred to a membrane. The protein-attached membrane was blocked with 5% skim milk treatment, and then the primary antibody was reacted overnight at 4° C. The membrane was washed with PBS-T, the secondary antibody was reacted at room temperature for one hour, the membrane was washed again with PBS-T, and then visualization was carried out by using Gel Doc (Bio-Rad, Hercules, CA, USA) with a western detection reagent (Elpis Biotech, Daejeon, Korea). […]"}, "[2]": {"system": "phosphorylated hormone-sensitive lipase (pHSL)", "test": "Western blot of lipolytic enzyme proteins in 3T3-L1 adipocytes", "details": "2, 20 μg/ml, 1 h, FIGS. 13a, 13b", "method": "as §2, §3"}, "perilipin (PLIN)": {"system": "perilipin (PLIN)", "test": "Western blot of lipolytic enzyme proteins in 3T3-L1 adipocytes", "details": "2, 20 μg/ml, 1 h, FIGS. 13a, 13b", "method": "as §2, §3"}}}
{"sequence": "KGSATGWMA [peptide of SEQ ID NO: 2]", "values": [{"measurement": "release amount of glycerol, a lipolysis product", "setting": "3T3-L1 adipocytes", "value": "increased in a treated peptide concentration-dependent manner"}, {"measurement": "phosphorylation of AMPK", "setting": "phospho-AMPK", "value": "increased"}, {"measurement": "phosphorylation of Tyr632 of insulin receptor substrate (IRS)", "setting": "phospho-IRS (Tyr632)", "value": "promoted"}, {"measurement": "activation of phosphorylation-AKT", "setting": "phospho-AKT", "value": "promoted"}, {"measurement": "phosphorylation of Ser302 of insulin receptor substrate (IRS) under an insulin resistance-inducing environment", "setting": "phospho-IRS (Ser302)", "value": "decreased"}, {"measurement": "expression of adipose triglyceride lipase (ATGL)", "setting": "[1]", "value": "increased"}, {"measurement": "expression of phosphorylated hormone-sensitive lipase (pHSL)", "setting": "[2]", "value": "increased"}, {"measurement": "expression of perilipin (PLIN)", "setting": "perilipin (PLIN)", "value": "increased"}]}
